Assay results reported in patent publication EP4741392A1, “1H-PYRAZOLO[4,3-C]PYRIDINE COMPOUND, AND COMPOSITION THEREOF AND USE THEREOF” (Shenzhen TargetRx Co., Ltd., priority 2023, dated 2025).

System: Ramos cells with BTK WT
Test: Phosphor-BTK(Y223) assay, suspended cells
Type: cell-based
Settings: Homo sapiens, Ramos, phosphorylated BTK Y223, Ramos cells with BTK WT
How it was run: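 Ramos BTK WT cells (2.5 k/well) were treated with compound dilutions for 2 h at 37 °C, then 5 mM Na3VO4 for 3 h. Lysates were read by HTRF p-BTK(Y223) cryptate/d2 antibodies overnight at RT (665/620 ratio). IC50 came from a four-parameter fit of % inhibition versus blank and positive-control wells.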

| IC50 | Compound |
| --- | --- |
| ≤ 5 nM | COc1ccc(F)cc1C(=O)NCc1ccc(-c2ncc(-c3ccc(S(C)(=O)=O)cn3)c3[nH]nc(N)c23)cc1 [Example 35, N-(4-(3-amino-7-(5-(methylsulfonyl)pyridin-2-yl)-1H-pyrazolo[4,3-c]pyridin-4-yl)benzyl)-5-fluoro-2-methoxybenzamide] |
| ≤ 5 nM | COc1ccc(F)cc1C(=O)NCc1ccc(-c2ncc(-c3ccc(C)cn3)c3[nH]nc(N)c23)cc1 [Example 37, N-(4-(3-amino-7-(5-methylpyridin-2-yl)-1H-pyrazolo[4,3-c]pyridin-4-yl)benzyl)-5-fluoro-2-methoxybenzamide] |
| ≤ 5 nM | COc1ccc(F)cc1C(=O)NCc1ccc(-c2ncc(-c3ccc(Cl)cn3)c3[nH]nc(N)c23)cc1 [Example 38, N-(4-(3-amino-7-(5-chloropyridin-2-yl)-1H-pyrazolo[4,3-c]pyridin-4-yl)benzyl)-5-fluoro-2-methoxybenzamide] |
| ≤ 5 nM | COc1ccc(F)cc1C(=O)NCc1ccc(-c2ncc(-c3ccc(OC(F)(F)F)cn3)c3[nH]nc(N)c23)cc1 [Example 41, N-(4-(3-amino-7-(5-(trifluoromethoxy)pyridin-2-yl)-1H-pyrazolo[4,3-c]pyridin-4-yl)benzyl)-5-fluoro-2-methoxybenzamide] |
| ≤ 5 nM | COc1ccc(F)cc1C(=O)NCc1ccc(-c2ncc(-c3ccc(C4COC4)cn3)c3[nH]nc(N)c23)cc1 [Example 43, N-(4-(3-amino-7-(5-(oxetan-3-yl)pyridin-2-yl)-1H-pyrazolo[4,3-c]pyridin-4-yl)benzyl)-5-fluoro-2-methoxybenzamide] |
| ≤ 5 nM | COc1ccc(F)cc1C(=O)NCc1ccc(-c2ncc(-c3ccc(C(F)F)cn3)c3[nH]nc(N)c23)cc1 [Example 48, N-(4-(3-amino-7-(5-(difluoromethyl)pyridin-2-yl)-1H-pyrazolo[4,3-c]pyridin-4-yl)benzyl)-5-fluoro-2-methoxybenzamide] |
| 5 to 10 nM | COc1ccc(F)cc1C(=O)NCc1ccc(-c2ncc(-c3ccc4nccn4n3)c3[nH]nc(N)c23)cc1 [Example 51, N-(4-(3-amino-7-(imidazo[1,2-b]pyridazin-6-yl)-1H-pyrazolo[4,3-c]pyridin-4-yl)benzyl)-5-fluoro-2-methoxybenzamide] |
| ≤ 5 nM | COc1ccc(F)cc1C(=O)NCc1ccc(-c2ncc(-c3ccc(C(=O)N4CCOCC4)cn3)c3[nH]nc(N)c23)cc1 [Example 52, N-(4-(3-amino-7-(5-(morpholine-4-carbonyl)pyridin-2-yl)-1H-pyrazolo[4,3-c]pyridin-4-yl)benzyl)-5-fluoro-2-methoxybenzamide] |
| ≤ 5 nM | COc1ccc(F)cc1C(=O)NCc1ccc(-c2ncc(-c3ccc(P(C)(C)=O)cn3)c3[nH]nc(N)c23)cc1 [Example 56, N-(4-(3-amino-7-(5-(dimethylphosphoryl)pyridin-2-yl)-1H-pyrazolo[4,3-c]pyridin-4-yl)benzyl)-5-fluoro-2-methoxybenzamide] |
| ≤ 5 nM | COCCOc1ccc(-c2cnc(-c3ccc(CNC(=O)c4cc(F)ccc4OC)cc3)c3c(N)n[nH]c23)nc1 [Example 59, N-(4-(3-amino-7-(5-(2-methoxyethoxy)pyridin-2-yl)-1H-pyrazolo[4,3-c]pyridin-4-yl)benzyl)-5-fluoro-2-methoxybenzamide] |
| ≤ 5 nM | COc1ccc(F)cc1C(=O)NCc1ccc(-c2ncc(-c3ccc(OCCN(C)C)cn3)c3[nH]nc(N)c23)cc1 [Example 60, N-(4-(3-amino-7-(5-(2-(dimethylamino)ethoxy)pyridin-2-yl)-1H-pyrazolo[4,3-c]pyridin-4-yl)benzyl)-5-fluoro-2-methoxybenzamide] |
| ≤ 5 nM | COc1ccc(F)cc1C(=O)NCc1ccc(-c2ncc(-c3ccc(OCCN4CCOCC4)cn3)c3[nH]nc(N)c23)cc1 [Example 61, N-(4-(3-amino-7-(5-(2-morpholinoethoxy)pyridin-2-yl)-1H-pyrazolo[4,3-c]pyridin-4-yl)benzyl)-5-fluoro-2-methoxybenzamide] |
| 5 to 10 nM | COc1ccc(F)cc1C(=O)NCc1ccc(-c2ncc(-c3ccc(OCCN4CCCC4)cn3)c3[nH]nc(N)c23)cc1 [Example 62, N-(4-(3-amino-7-(5-(2-(pyrrolidin-1-yl)ethoxy)pyridin-2-yl)-1H-pyrazolo[4,3-c]pyridin-4-yl)benzyl)-5-fluoro-2-methoxybenzamide] |
| ≤ 5 nM | COc1ccc(F)cc1C(=O)NCc1ccc(-c2ncc(-c3ccc(C(C)(C)O)cn3)c3[nH]nc(N)c23)cc1 [Example 65, N-(4-(3-amino-7-(5-(2-hydroxypropan-2-yl)pyridin-2-yl)-1H-pyrazolo[4,3-c]pyridin-4-yl)benzyl)-5-fluoro-2-methoxybenzamide] |
| 5 to 10 nM | COc1ccc(F)cc1C(=O)NCc1ccc(-c2ncc(-c3ccc(CN4CCCCC4)cn3)c3[nH]nc(N)c23)cc1 [Example 66, N-(4-(3-amino-7-(5-(piperidin-1-ylmethyl)pyridin-2-yl)-1H-pyrazolo[4,3-c]pyridin-4-yl)benzyl)-5-fluoro-2-methoxybenzamide] |
| ≤ 5 nM | COc1ccc(F)cc1C(=O)NCc1ccc(-c2ncc(-c3ccc(CN4CCOCC4)cn3)c3[nH]nc(N)c23)cc1 [Example 67, N-(4-(3-amino-7-(5-(morpholinomethyl)pyridin-2-yl)-1H-pyrazolo[4,3-c]pyridin-4-yl)benzyl)-5-fluoro-2-methoxybenzamide] |
| ≤ 5 nM | COc1ccc(F)cc1C(=O)NCc1ccc(-c2ncc(-c3ccc(CN4CCN(C)CC4)cn3)c3[nH]nc(N)c23)cc1 [Example 68, N-(4-(3-amino-7-(5-((4-methylpiperazin-1-yl)methyl)pyridin-2-yl)-1H-pyrazolo[4,3-c]pyridin-4-yl)benzyl)-5-fluoro-2-methoxybenzamide] |

Continued, compound first:

| Compound | IC50 |
| --- | --- |
| COc1ccc(F)cc1C(=O)NCc1ccc(-c2ncc(-c3ncc(F)cn3)c3[nH]nc(N)c23)cc1 [Example 36, N-(4-(3-amino-7-(5-fluoropyrimidin-2-yl)-1H-pyrazolo[4,3-c]pyridin-4-yl)benzyl)-5-fluoro-2-methoxybenzamide] | 10 to 50 nM |
| COc1ccc(F)cc1C(=O)NCc1ccc(-c2ncc(-c3ncc(C)cn3)c3[nH]nc(N)c23)cc1 [Example 39, N-(4-(3-amino-7-(5-methylpyrimidin-2-yl)-1H-pyrazolo[4,3-c]pyridin-4-yl)benzyl)-5-fluoro-2-methoxybenzamide] | ≤ 5 nM |
| COc1ccc(F)cc1C(=O)NCc1ccc(-c2ncc(-c3ncc(C(F)(F)F)cn3)c3[nH]nc(N)c23)cc1 [Example 42, N-(4-(3-amino-7-(5-(trifluoromethyl)pyrimidin-2-yl)-1H-pyrazolo[4,3-c]pyridin-4-yl)benzyl)-5-fluoro-2-methoxybenzamide] | 10 to 50 nM |
| COc1ccc(F)cc1C(=O)NCc1ccc(-c2ncc(-c3cc4ncccn4n3)c3[nH]nc(N)c23)cc1 [Example 44, N-(4-(3-amino-7-(pyrazolo[1,5-a]pyrimidin-2-yl)-1H-pyrazolo[4,3-c]pyridin-4-yl)benzyl)-5-fluoro-2-methoxybenzamide] | ≤ 5 nM |
| CCOC(=O)c1cnc2cc(-c3cnc(-c4ccc(CNC(=O)c5cc(F)ccc5OC)cc4)c4c(N)n[nH]c34)nn2c1 [Example 45, ethyl 2-(3-amino-4-(4-((5-fluoro-2-methoxybenzoylamino)methyl)phenyl)-1H-pyrazolo[4,3-c]pyridin-7-yl)pyrazolo[1,5-a]pyrimidine-6-carboxylate] | > 50 nM |
| COc1ccc(F)cc1C(=O)NCc1ccc(-c2ncc(-c3ccn4nccc4n3)c3[nH]nc(N)c23)cc1 [Example 46, N-(4-(3-amino-7-(pyrazolo[1,5-a]pyrimidin-5-yl)-1H-pyrazolo[4,3-c]pyridin-4-yl)benzyl)-5-fluoro-2-methoxybenzamide] | ≤ 5 nM |
| COc1ccc(F)cc1C(=O)NCc1ccc(-c2ncc(-c3ccc4cn[nH]c4n3)c3[nH]nc(N)c23)cc1 [Example 47, N-(4-(3-amino-7-(1H-pyrazolo[3,4-b]pyridin-6-yl)-1H-pyrazolo[4,3-c]pyridin-4-yl)benzyl)-5-fluoro-2-methoxybenzamide] | 5 to 10 nM |
| COc1ccc(F)cc1C(=O)NCc1ccc(-c2ncc(-c3cn4ccnc4cn3)c3[nH]nc(N)c23)cc1 [Example 50, N-(4-(3-amino-7-(imidazo[1,2-a]pyrazin-6-yl)-1H-pyrazolo[4,3-c]pyridin-4-yl)benzyl)-5-fluoro-2-methoxybenzamide] | 5 to 10 nM |
| COc1ccc(F)cc1C(=O)NCc1ccc(-c2ncc(-c3ccc(C(=O)N4C[C@H](C)O[C@@H](C)C4)cn3)c3[nH]nc(N)c23)cc1 [Example 53, N-(4-(3-amino-7-(5-((2S,6S)-2,6-dimethylmorpholine-4-carbonyl)pyridin-2-yl)-1H-pyrazolo[4,3-c]pyridin-4-yl)benzyl)-5-fluoro-2-methoxybenzamide] | 5 to 10 nM |
| COc1ccc(F)cc1C(=O)NCc1ccc(-c2ncc(-c3ccc(C(=O)N4C[C@@H](C)O[C@H](C)C4)cn3)c3[nH]nc(N)c23)cc1 [Example 54, N-(4-(3-amino-7-(5-((2R,6R)-2,6-dimethylmoroholine-4-carbonyl)pyridin-2-yl)-1H-pyrazolo[4,3-c]pyridin-4-yl)benzyl)-5-fluoro-2-methoxybenzamide] | ≤ 5 nM |
| COc1ccc(F)cc1C(=O)NCc1ccc(-c2ncc(-c3nc4cnccn4n3)c3[nH]nc(N)c23)cc1 [Example 57, N-(4-(7-([1,2,4]triazolo[1,5-a]pyrazin-2-yl)-3-amino-1H-pyrazolo[4,3-c]pyridin-4-yl)benzyl)-5-fluoro-2-methoxybenzamide] | 10 to 50 nM |
| COc1ccc(F)cc1C(=O)NCc1ccc(-c2ncc(-c3nc4ccccn4n3)c3[nH]nc(N)c23)cc1 [Example 58, N-(4-(7-([1,2,4]triazolo[1,5-a]pyridin-2-yl)-3-amino-1H-pyrazolo[4,3-c]pyridin-4-yl)benzyl)-5-fluoro-2-methoxybenzamide] | ≤ 5 nM |
| COc1ccc(F)cc1C(=O)NCc1ccc(-c2ncc(-c3cc4ccccn4n3)c3[nH]nc(N)c23)cc1 [Example 69, N-(4-(3-amino-7-(pyrazolo[1,5-a]pyridin-2-yl)-1H-pyrazolo[4,3-c]pyridin-4-yl)benzyl)-5-fluoro-2-methoxybenzamide] | ≤ 5 nM |
